Test results as given in US20240365781A1, “SYNERGISTICALLY EFFECTIVE HERBICIDE COMPOSITION COMPRISING PELARGONIC ACID AND FLAZASULFURON” (Belchim Crop Protection NV, priority 2017, published 2024).

Columns and labels:
Type in all cases: in vivo
Stellaria media = assay: post-emergence field trial under rows of apple trees, 150-200 L water/ha (Examples 10-12); conditions: 20 g of active compound/ha
Protocol: (§1) Herbicidal activity was determined by performing a post-emergence test. […] The corresponding mixture was in the form of a spray solution. Besides, spray solutions of individual compositions comprising pelargonic acid or flazasulfuron were used.
(§2) The spray solution was applied on plants of unwanted vegetation present on fields where perennial crops were grown.
(§3) After 5 to 88 days after application of the spray solution, the degree of damage to the unwanted vegetation is rated in % of plants of unwanted vegetation that were killed. Tests were performed on test fields (field trials).

Veronica persicae = assay: as above; conditions: 20 g of active compound/ha
Protocol: as §1, §2, §3

Taraxacum officinalis = assay: as above; conditions: 20 g of active compound/ha
Protocol: as §1, §2, §3

Convolvulus arvensis L. = assay: post-emergence test, field trial (Examples 1-5); conditions: 3 d, FT; pelargonic acid 5440 g/ha, flazasulfuron 50 g/ha; 8 L/ha
Description: (§4) The expected activity of a given combination of two or three herbicides can be calculated as follows according to a calculation method by Colby (cf. COLBY, S. R.: “Calculating synergistic and antagonistic responses of herbicide combinations”, • Weeds 15, pages 20-22, 1967): • If X=% damage by herbicide (A) at an application rate of m g/ha, • Y=% damage by herbicide (B) at an application rate of n g/ha, • E=the expected damage by herbicides (A) and (B) at application rates of m and n […] and, • then for a combination:
(§5) Individual compositions comprising pelargonic acid or flazasulfuron are compared with a herbicide composition according to the invention comprising pelargonic acid and flazasulfuron.
(§6) Herbicidal activity was determined by performing a post-emergence test. […] The corresponding mixture was in the form of a spray liquor. Besides, spray liquors of individual compositions comprising pelargonic acid or flazasulfuron were used.
(§7) Tests were performed on test fields (field trials) or in pots (pot trials).

Lolium sp. = assay: post-emergence test, field trial (Examples 1-5); conditions: 7 d, FT; pelargonic acid 5440 g/ha, flazasulfuron 50 g/ha; 8 L/ha
Description: as §4, §5, §6, §7

Erodium cicuta = assay: post-emergence test, field trial (Examples 1-5); conditions: 28 d, FT; pelargonic acid 5440 g/ha, flazasulfuron 50 g/ha; 8 L/ha
Description: as §4, §5, §6, §7

Chenopodium album = assay: post-emergence test, field trial (Examples 1-5); conditions: FT
Description: as §4, §5, §6, §7

Echinochloa crusgalli = assay: post-emergence test, field trial (Examples 1-5); conditions: FT
Description: as §4, §5, §6, §7

Sonchus oleraceus L. = assay: post-emergence test, field trial (Examples 1-5); conditions: FT, pelargonic acid 5440 g/ha, flazasulfuron 50 g/ha, 8 L/ha
Description: as §4, §5, §6, §7

Digitaria sang = assay: post-emergence test, field trial (Examples 1-5); conditions: FT, pelargonic acid 5440 g/ha, flazasulfuron 50 g/ha, 8 L/ha
Description: as §4, §5, §6, §7

Poa annua = assay: post-emergence test, pot trial (Examples 1-5); conditions: 28 d, PT; pelargonic acid 10880 g/ha, flazasulfuron 50 g/ha; 16 L/ha
Description: as §4, §5, §6, §7

Trifolium repens = assay: post-emergence test, pot trial (Examples 1-5); conditions: 28 d, PT; pelargonic acid 10880 g/ha, flazasulfuron 50 g/ha; 16 L/ha
Description: as §4, §5, §6, §7

Matricaria chamomilla = assay: post-emergence test, pot trial (Examples 1-5); conditions: bigger plants, 28 d, PT, pelargonic acid 10880 g/ha, 16 L/ha
Description: as §4, §5, §6, §7

Geranium dissectum = assay: post-emergence test, pot trial (Examples 1-5); conditions: 28 d, PT, pelargonic acid 10880 g/ha, 16 L/ha
Description: as §4, §5, §6, §7

Setaria pumila = assay: post-emergence test, pot trial (Examples 1-5); conditions: young plants, 28 d, PT, pelargonic acid 10880 g/ha, 16 L/ha
Description: as §4, §5, §6, §7

[1] = 3 d, pelargonic acid 10880 g/ha, flazasulfuron 25 g/ha, 16 L/ha
[2] = 3 d, pelargonic acid 21760 g/ha, flazasulfuron 25 g/ha, 32 L/ha
[3] = 7 d, pelargonic acid 10880 g/ha, flazasulfuron 25 g/ha, 16 L/ha
[4] = 7 d, pelargonic acid 10880 g/ha, flazasulfuron 50 g/ha, 16 L/ha
[5] = 7 d, pelargonic acid 21760 g/ha, flazasulfuron 50 g/ha, 32 L/ha
[6] = 13 d, pelargonic acid 10880 g/ha, flazasulfuron 25 g/ha, 16 L/ha
[7] = 13 d, pelargonic acid 10880 g/ha, flazasulfuron 50 g/ha, 16 L/ha
[8] = 13 d, pelargonic acid 21760 g/ha, flazasulfuron 25 g/ha, 32 L/ha
[9] = 13 d, pelargonic acid 21760 g/ha, flazasulfuron 50 g/ha, 32 L/ha
[10] = 23 d, pelargonic acid 10880 g/ha, flazasulfuron 25 g/ha, 16 L/ha
[11] = 23 d, pelargonic acid 21760 g/ha, flazasulfuron 25 g/ha, 32 L/ha
[12] = 23 d, pelargonic acid 21760 g/ha, flazasulfuron 50 g/ha, 32 L/ha
[13] = 30 d, pelargonic acid 10880 g/ha, flazasulfuron 25 g/ha, 16 L/ha
[14] = 30 d, pelargonic acid 21760 g/ha, flazasulfuron 25 g/ha, 32 L/ha
[15] = 38 d, pelargonic acid 10880 g/ha, flazasulfuron 25 g/ha, 16 L/ha
[16] = 38 d, pelargonic acid 21760 g/ha, flazasulfuron 25 g/ha, 32 L/ha

COc1cc(OC)nc(NC(=O)NS(=O)(=O)c2ncccc2C(F)(F)F)n1 [Flazasulfuron, 1-(4,6-dimethoxypyrimidin-2-yl)-3-(3-trifluoromethyl-2-pyridylsulfonyl)urea]
herbicidal effect (%) (Stellaria media; Stellaria media/5 d): 0%
herbicidal effect (%) (Stellaria media; Stellaria media/18 d): 79%
herbicidal effect (%) (Veronica persicae; Veronica persicae/7 d): 20%
herbicidal effect (%) (Veronica persicae; Veronica persicae/16 d): 4%
herbicidal effect (%) (Veronica persicae; Veronica persicae/26 d): 20%
herbicidal effect (%) (Veronica persicae; Veronica persicae/59 d): 0%
herbicidal effect (%) (Taraxacum officinalis; Taraxacum officinalis/5 d): 0%
herbicidal effect (%) (Taraxacum officinalis; Taraxacum officinalis/18 d): 71%
herbicidal effect (%) (Taraxacum officinalis; Taraxacum officinalis/32 d): 83%
herbicidal effect (%) (Taraxacum officinalis; Taraxacum officinalis/61 d): 72%
herbicidal effect (%) (Taraxacum officinalis; Taraxacum officinalis/88 d): 71%
herbicidal effect (Convolvulus arvensis L.): 0%
herbicidal effect (Lolium sp.): 2.5%
herbicidal effect (Erodium cicuta): 95%
herbicidal effect (Chenopodium album; [1]): 10%
herbicidal effect (Chenopodium album; 3 d, pelargonic acid 10880 g/ha, flazasulfuron 50 g/ha, 16 L/ha): 15%
herbicidal effect (Chenopodium album; [2]): 10%
herbicidal effect (Chenopodium album; 3 d, pelargonic acid 21760 g/ha, flazasulfuron 50 g/ha, 32 L/ha): 15%
herbicidal effect (Chenopodium album; [3]): 40%
herbicidal effect (Chenopodium album; [4]): 0%
herbicidal effect (Chenopodium album; 7 d, pelargonic acid 21760 g/ha, flazasulfuron 25 g/ha, 32 L/ha): 40%
herbicidal effect (Chenopodium album; [5]): 0%
herbicidal effect (Chenopodium album; [6]): 15%
herbicidal effect (Chenopodium album; [7]): 0%
herbicidal effect (Chenopodium album; [8]): 15%
herbicidal effect (Chenopodium album; [9]): 0%
herbicidal effect (Chenopodium album; [10]): 20%
herbicidal effect (Chenopodium album; [11]): 20%
herbicidal effect (Chenopodium album; [12]): 0%
herbicidal effect (Chenopodium album; [13]): 20%
herbicidal effect (Chenopodium album; 30 d, pelargonic acid 10880 g/ha, flazasulfuron 50 g/ha, 16 L/ha): 0%
herbicidal effect (Chenopodium album; [14]): 20%
herbicidal effect (Chenopodium album; 30 d, pelargonic acid 21760 g/ha, flazasulfuron 50 g/ha, 32 L/ha): 0%
herbicidal effect (Chenopodium album; [15]): 20%
herbicidal effect (Chenopodium album; 38 d, pelargonic acid 10880 g/ha, flazasulfuron 50 g/ha, 16 L/ha): 0%
herbicidal effect (Chenopodium album; [16]): 20%
herbicidal effect (Chenopodium album; 38 d, pelargonic acid 21760 g/ha, flazasulfuron 50 g/ha, 32 L/ha): 0%
herbicidal effect (Echinochloa crusgalli; 3 d, pelargonic acid 5440 g/ha, flazasulfuron 50 g/ha, 8 L/ha): 2.5%
herbicidal effect (Echinochloa crusgalli; [1]): 0%
herbicidal effect (Echinochloa crusgalli; [2]): 0%
herbicidal effect (Echinochloa crusgalli; 7 d, pelargonic acid 5440 g/ha, flazasulfuron 50 g/ha, 8 L/ha): 13.3%
herbicidal effect (Echinochloa crusgalli; [3]): 40%
herbicidal effect (Echinochloa crusgalli; [4]): 20%
herbicidal effect (Echinochloa crusgalli; [5]): 20%
herbicidal effect (Echinochloa crusgalli; 12 d, pelargonic acid 5440 g/ha, flazasulfuron 50 g/ha, 8 L/ha): 37.3%
herbicidal effect (Echinochloa crusgalli; [6]): 40%
herbicidal effect (Echinochloa crusgalli; [7]): 30%
herbicidal effect (Echinochloa crusgalli; [8]): 40%
herbicidal effect (Echinochloa crusgalli; [9]): 30%
herbicidal effect (Echinochloa crusgalli; [10]): 40%
herbicidal effect (Echinochloa crusgalli; 23 d, pelargonic acid 10880 g/ha, flazasulfuron 50 g/ha, 16 L/ha): 0%
herbicidal effect (Echinochloa crusgalli; [11]): 40%
herbicidal effect (Echinochloa crusgalli; [12]): 0%
herbicidal effect (Echinochloa crusgalli; 26 d, pelargonic acid 5440 g/ha, flazasulfuron 50 g/ha, 8 L/ha): 99%
herbicidal effect (Echinochloa crusgalli; [13]): 90%
herbicidal effect (Echinochloa crusgalli; [14]): 90%
herbicidal effect (Echinochloa crusgalli; [15]): 90%
herbicidal effect (Echinochloa crusgalli; [16]): 90%
herbicidal effect (Echinochloa crusgalli; 72 d, pelargonic acid 5440 g/ha, flazasulfuron 50 g/ha, 8 L/ha): 96.3%
herbicidal effect (Sonchus oleraceus L.; 3 d): 0%
herbicidal effect (Sonchus oleraceus L.; 7 d): 0%
herbicidal effect (Sonchus oleraceus L.; 13 d): 2.5%
herbicidal effect (Sonchus oleraceus L.; 28 d): 12.5%
herbicidal effect (Sonchus oleraceus L.; 58 d): 10%
herbicidal effect (Digitaria sang; 3 d): 2.5%
herbicidal effect (Digitaria sang; 7 d): 13.3%
herbicidal effect (Digitaria sang; 12 d): 37.3%
herbicidal effect (Digitaria sang; 72 d): 3.8%
herbicidal effect (Poa annua): 0%
herbicidal effect (Trifolium repens): 1.2%
herbicidal effect (Matricaria chamomilla; flazasulfuron 25 g/ha): 0%
herbicidal effect (Matricaria chamomilla; flazasulfuron 50 g/ha): 2%
herbicidal effect (Geranium dissectum; bigger plants, flazasulfuron 50 g/ha): 0%
herbicidal effect (Geranium dissectum; young plants, flazasulfuron 25 g/ha): 7%
herbicidal effect (Geranium dissectum; young plants, flazasulfuron 50 g/ha): 8%
herbicidal effect (Setaria pumila; flazasulfuron 25 g/ha): 89%
herbicidal effect (Setaria pumila; flazasulfuron 50 g/ha): 92%
